Results taken from patent US12679835B2, “Benzothiazinone derivative substituted with trifluoromethyl at 6-position, and preparation method therefor and use thereof” (SOOCHOW UNIVERSITY, priority 2021, dated 2026).
Converted amounts (≈) assume the structure as drawn.

Experiments:
[1] = system: Mycobacterium tuberculosis (H37 Rv, standard tuberculosis strain); assay: Anti-Mycobacterium tuberculosis activity, microwell Alamar Blue fluorometric method (MIC); format: cell-based; details: Mycobacterium tuberculosis H37Rv, 37° C., 8 days + 2 days, read-out: MIC (minimal inhibitory concentration)
in vitro = details: human, microsomes, pH 7.4
physchem = details: pH 7.4, aqueous buffer, kinetic from dmso stock
Tuberculosis = details: background statement, existing clinical first-line drug; cited from earlier work

Compound `CN(Cc1nnc(-c2ccccc2)o1)c1nc(=O)c2cc(S(C)(=O)=O)cc([N+](=O)[O-])c2s1` [Control 1] has an MIC [1] of 0.014 µg/mL and a half-life at 1 μM (in vitro) of 45.9 min.
In the case of `CN(Cc1cn(-c2ccccc2)nn1)c1nc(=O)c2cc(S(C)(=O)=O)cc([N+](=O)[O-])c2s1` [Control 2], the MIC [1] is reported as 0.022 µg/mL and the half-life at 1 μM (in vitro) is reported as 53.7 min.
For `CN(Cc1cn(-c2ccc(F)cc2)nn1)c1nc(=O)c2cc(S(C)(=O)=O)cc([N+](=O)[O-])c2s1` [Control 3], the MIC [1] was 0.015 µg/mL and the half-life at 1 μM (in vitro) was 27.6 min.
For `CN(Cc1nnc(-c2ccc(F)cc2)s1)c1nc(=O)c2cc(S(C)(=O)=O)cc([N+](=O)[O-])c2s1` [Control 4], the MIC [1] was 0.024 µg/mL and the half-life at 1 μM (in vitro) was 13.2 min.
For `CN(Cc1coc(-c2ccccc2)n1)c1nc(=O)c2cc(S(C)(=O)=O)cc([N+](=O)[O-])c2s1` [Control 5], the MIC [1] was 0.015 µg/mL and the half-life at 1 μM (in vitro) was 21 min.
Work on `CN(Cc1nnc(-c2ccccc2)o1)c1nc(=O)c2cc(C(F)(F)F)cc([N+](=O)[O-])c2s1` [Example 1, 2-(methyl ((5-phenyl-1,3,4-oxadiazol-2-yl)methyl)amino)-8-nitro-6-(trifluoromethyl)-4H-benzo [e] [1,3] Thiazin-4-ketone] yielded an MIC [1] of 0.003 µg/mL, a half-life at 1 μM (in vitro) of 68.2 min and a solubility at 4 h (physchem) of 0.15 µg/mL (≈ 0.324 µM).
For `CN(Cc1cn(-c2ccccc2)nn1)c1nc(=O)c2cc(C(F)(F)F)cc([N+](=O)[O-])c2s1` [Example 2, 2-(1-phenyl ((1-1H-1,2,3-triazole-4-yl)methyl) (methyl)amino)-8-nitro-6-(trifluoromethyl)-4H-benzo [e] [1,3] Thiazin-4-ketone], the MIC [1] was 0.004 µg/mL, the half-life at 1 μM (in vitro) was 100 min and the solubility at 4 h (physchem) was 0.13 µg/mL (≈ 0.281 µM).
`CN(Cc1cn(-c2ccc(F)cc2)nn1)c1nc(=O)c2cc(C(F)(F)F)cc([N+](=O)[O-])c2s1` [Example 3] showed an MIC [1] of 0.004 µg/mL, a half-life at 1 μM (in vitro) of 116 min and a solubility at 4 h (physchem) of 0.12 µg/mL (≈ 0.25 µM).
In the case of `CN(Cc1nnc(-c2ccc(F)cc2)s1)c1nc(=O)c2cc(C(F)(F)F)cc([N+](=O)[O-])c2s1` [Example 4], the MIC [1] is reported as 0.016 µg/mL and the half-life at 1 μM (in vitro) is reported as 34.3 min.
In the case of `CN(Cc1coc(-c2ccccc2)n1)c1nc(=O)c2cc(C(F)(F)F)cc([N+](=O)[O-])c2s1` [Example 5, 2-(methyl((2-phenyloxazole-4-yl)methyl)amino)-8-nitro-6-(trifluoromethyl)-4H-benzo [e] [1,3] Thiazin-4-ketone], the MIC [1] is reported as 0.003 µg/mL, the half-life at 1 μM (in vitro) is reported as 33.6 min and the solubility at 4 h (physchem) is reported as 0.11 µg/mL (≈ 0.238 µM).
With `O=c1nc(N2CCN(CC3CCCCC3)CC2)sc2c([N+](=O)[O-])cc(C(F)(F)F)cc12` [PBTZ169] the MIC [1] was 0.00183 µg/mL, the half-life at 1 μM (in vitro) was 38 min and the solubility at 4 h (physchem) was < 0.01 µg/mL.
For `NNC(=O)c1ccncc1` [isoniazid INH, isoniazid], the MIC [1] is listed as 0.028 µg/mL and the MIC (Tuberculosis) is listed as 0.5 µM (≈ 0.0686 µg/mL).
